Measurements as given in patent US11759455B2, “Substituted 1H-imidazo[4,5-b]pyridin-2(3H)-ones and their use as GLUN2B receptor modulators” (JANSSEN PHARMACEUTICA NV, priority 2016, dated 2023).

Target: T1, human GluN1/GluN2B NMDA receptors (Homo sapiens, UniProt Q13224)
T1 construct: expressed in transfected cells
Experiment: Cell-based calcium flux (FLIPR) assay on cloned human NR1/NR2B ion channels expressed in mammalian cells (standard and HTS buffer variants);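 further: stable Tet-On inducible cell line, Ca2+ influx triggered by glutamate at about EC40 plus 10 µM glycine, fluorescent dye read-out over 5 min, normalized to control wells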
Details: standard assay buffer (0.5 mM MgCl2 dye loading; 137 mM NaCl, 4 mM KCl assay buffer), human GluN1/GluN2B cells, read-out: NR2B IC50 (μM) standard assay

T1 sequence (Q13224 27-1484, other chains not shown): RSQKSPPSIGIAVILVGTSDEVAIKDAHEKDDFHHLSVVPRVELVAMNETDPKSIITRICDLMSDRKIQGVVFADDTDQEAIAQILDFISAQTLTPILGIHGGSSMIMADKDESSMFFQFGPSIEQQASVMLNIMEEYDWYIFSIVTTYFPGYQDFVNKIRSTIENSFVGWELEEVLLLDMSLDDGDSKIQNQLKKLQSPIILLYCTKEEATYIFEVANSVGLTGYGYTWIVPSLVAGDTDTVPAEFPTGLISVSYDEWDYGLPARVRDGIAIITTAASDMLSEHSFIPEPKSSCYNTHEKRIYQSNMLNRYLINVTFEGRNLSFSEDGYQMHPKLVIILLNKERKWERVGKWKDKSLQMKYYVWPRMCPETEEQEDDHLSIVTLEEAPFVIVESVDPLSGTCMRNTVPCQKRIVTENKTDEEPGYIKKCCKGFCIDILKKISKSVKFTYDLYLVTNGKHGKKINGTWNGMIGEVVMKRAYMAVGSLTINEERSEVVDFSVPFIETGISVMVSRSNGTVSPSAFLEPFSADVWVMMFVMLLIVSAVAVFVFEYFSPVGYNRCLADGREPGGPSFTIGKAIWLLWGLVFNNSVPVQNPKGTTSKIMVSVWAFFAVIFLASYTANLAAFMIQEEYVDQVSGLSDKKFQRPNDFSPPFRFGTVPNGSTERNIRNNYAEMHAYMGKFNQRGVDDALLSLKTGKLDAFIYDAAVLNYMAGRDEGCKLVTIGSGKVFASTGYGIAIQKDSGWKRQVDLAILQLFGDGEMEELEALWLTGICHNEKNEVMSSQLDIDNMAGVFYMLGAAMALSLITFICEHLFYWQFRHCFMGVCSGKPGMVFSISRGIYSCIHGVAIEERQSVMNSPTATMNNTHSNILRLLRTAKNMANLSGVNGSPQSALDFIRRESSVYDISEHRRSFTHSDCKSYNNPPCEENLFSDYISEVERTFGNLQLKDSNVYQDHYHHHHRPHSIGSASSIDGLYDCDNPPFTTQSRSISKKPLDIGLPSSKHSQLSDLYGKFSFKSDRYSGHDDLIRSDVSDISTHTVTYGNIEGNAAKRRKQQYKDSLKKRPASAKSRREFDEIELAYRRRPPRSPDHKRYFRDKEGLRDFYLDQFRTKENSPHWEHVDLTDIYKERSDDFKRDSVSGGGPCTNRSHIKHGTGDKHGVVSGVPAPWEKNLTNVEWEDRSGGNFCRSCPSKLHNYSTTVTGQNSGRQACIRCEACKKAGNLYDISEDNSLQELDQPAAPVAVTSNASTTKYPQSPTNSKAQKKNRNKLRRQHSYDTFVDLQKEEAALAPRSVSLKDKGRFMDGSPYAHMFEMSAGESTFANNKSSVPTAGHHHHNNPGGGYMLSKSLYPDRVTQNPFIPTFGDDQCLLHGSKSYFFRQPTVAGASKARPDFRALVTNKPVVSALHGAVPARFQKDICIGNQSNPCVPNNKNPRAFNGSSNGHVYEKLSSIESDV

Row | IC50 | SMILES
1 | 0.365 µM | O=C(Cn1c(=O)[nH]c2ncc(-c3cccc(C(F)(F)F)c3)cc21)c1nccs1 [Example 215, 1-(2-Oxo-2-thiazol-2-yl-ethyl)-6-[3-(trifluoromethyl)phenyl]-3H-imidazo[4,5-b]pyridin-2-one]
2 | > 10 µM | O=c1[nH]c2ncc(-c3cccc(C(F)(F)F)c3)cc2n1Cc1ccc(C(F)(F)F)cc1 [Example 219, 6-[3-(Trifluoromethyl)phenyl]-1-[[4-(trifluoromethyl)phenyl]methyl]-3H-imidazo[4,5-b]pyridin-2-one]
3 | 1.65 µM | COc1ccc(Cn2c(=O)[nH]c3ncc(-c4cccc(C(F)(F)F)c4)cc32)cc1F [Example 220, 1-[(3-Fluoro-4-methoxy-phenyl)methyl]-6-[3-(trifluoromethyl)phenyl]-3H-imidazo[4,5-b]pyridin-2-one]
4 | 8.71 µM | Cc1cc(Cn2c(=O)[nH]c3ncc(-c4cccc(C(F)(F)F)c4)cc32)ccc1F [Example 221, 1-[(4-Fluoro-3-methyl-phenyl)methyl]-6-[3-(trifluoromethyl)phenyl]-3H-imidazo[4,5-b]pyridin-2-one]
5 | 0.479 µM | O=c1[nH]c2ncc(-c3cccc(C(F)(F)F)c3)cc2n1Cc1cccc(F)c1 [Example 222, 1-[(3-Fluorophenyl)methyl]-6-[3-(trifluoromethyl)phenyl]-3H-imidazo[4,5-b]pyridin-2-one]
6 | 0.8 µM | O=c1[nH]c2ncc(-c3cccc(C(F)(F)F)c3)cc2n1CC1(F)COC1 [Example 226, 1-[(3-Fluorooxetan-3-yl)methyl]-6-[3-(trifluoromethyl)phenyl]-3H-imidazo[4,5-b]pyridin-2-one]
7 | 0.096 µM | O=c1[nH]c2ncc(-c3cccc(C(F)(F)F)c3)cc2n1Cc1ncccn1 [Example 227, 1-(Pyrimidin-2-ylmethyl)-6-[3-(trifluoromethyl)phenyl]-3H-imidazo[4,5-b]pyridin-2-one]
8 | 0.083 µM | O=c1[nH]c2ncc(-c3cccc(C(F)(F)F)c3)cc2n1Cc1ccccn1 [Example 228, 1-(2-Pyridylmethyl)-6-[3-(trifluoromethyl)phenyl]-3H-imidazo[4,5-b]pyridin-2-one]
9 | 0.194 µM | O=c1[nH]c2ncc(-c3cccc(C(F)(F)F)c3)cc2n1Cc1ccncc1 [Example 229, 1-(4-Pyridylmethyl)-6-[3-(trifluoromethyl)phenyl]-3H-imidazo[4,5-b]pyridin-2-one]
10 | 0.017 µM | O=c1[nH]c2ncc(-c3cccc(C(F)(F)F)c3)cc2n1Cc1cccnc1 [Example 230, 1-(3-Pyridylmethyl)-6-[3-(trifluoromethyl)phenyl]-3H-imidazo[4,5-b]pyridin-2-one]
11 | 0.094 µM | Cc1ncc(Cn2c(=O)[nH]c3ncc(-c4cccc(C(F)(F)F)c4)cc32)cn1 [Example 231, 1-[(2-Methylpyrimidin-5-yl)methyl]-6-[3-(trifluoromethyl)phenyl]-3H-imidazo[4,5-b]pyridin-2-one]
12 | 0.017 µM | O=c1[nH]c2ncc(-c3cccc(C(F)(F)F)c3)cc2n1Cc1cccnn1 [Example 232, 1-(Pyridazin-3-ylmethyl)-6-[3-(trifluoromethyl)phenyl]-3H-imidazo[4,5-b]pyridin-2-one]
13 | 2.83 µM | COc1cccnc1Cn1c(=O)[nH]c2ncc(-c3cccc(C(F)(F)F)c3)cc21 [Example 233, 1-[(3-Methoxy-2-pyridyl)methyl]-6-[3-(trifluoromethyl)phenyl]-3H-imidazo[4,5-b]pyridin-2-one]
14 | 1.98 µM | Cc1cnc(Cn2c(=O)[nH]c3ncc(-c4cccc(C(F)(F)F)c4)cc32)c(F)c1 [Example 234, 1-[(3-Fluoro-5-methyl-2-pyridyl)methyl]-6-[3-(trifluoromethyl)phenyl]-3H-imidazo[4,5-b]pyridin-2-one]
15 | > 5 µM | O=c1[nH]c2ncc(-c3cccc(C(F)(F)F)c3)cc2n1Cc1nn[nH]n1 [Example 236, 1-(2H-Tetrazol-5-ylmethyl)-6-[3-(trifluoromethyl)phenyl]-3H-imidazo[4,5-b]pyridin-2-one]
16 | > 10 µM | O=c1[nH]c2ncc(-c3cccc(C(F)(F)F)c3)cc2n1C(F)(F)c1cccnc1 [Example 237, 1-[Difluoro(3-pyridyl)methyl]-6-[3-(trifluoromethyl)phenyl]-3H-imidazo[4,5-b]pyridin-2-one]
17 | 0.034 µM | O=C(Cn1c(=O)[nH]c2ncc(-c3cccc(C(F)(F)F)c3)cc21)C1CC1 [Example 239, 1-(2-Cyclopropyl-2-oxo-ethyl)-6-[3-(trifluoromethyl)phenyl]-3H-imidazo[4,5-b]pyridin-2-one]
18 | 0.022 µM | CCC(=O)Cn1c(=O)[nH]c2ncc(-c3cccc(C(F)(F)F)c3)cc21 [Example 240, 1-(2-Oxobutyl)-6-[3-(trifluoromethyl)phenyl]-3H-imidazo[4,5-b]pyridin-2-one]

Row | IC50 | SMILES
19 | 0.093 µM | CC(C)C(=O)Cn1c(=O)[nH]c2ncc(-c3cccc(C(F)(F)F)c3)cc21 [Example 241, 1-(3-Methyl-2-oxo-butyl)-6-[3-(trifluoromethyl)phenyl]-3H-imidazo[4,5-b]pyridin-2-one]
20 | 0.15 µM | Cc1cncc(Cn2c(=O)[nH]c3ncc(-c4cccc(C(F)(F)F)c4)cc32)c1 [Example 242, 1-[(5-Methyl-3-pyridyl)methyl]-6-[3-(trifluoromethyl)phenyl]-3H-imidazo[4,5-b]pyridin-2-one]
21 | 0.065 µM | O=c1[nH]c2ncc(-c3cccc(C(F)(F)F)c3)cc2n1Cc1csnn1 [Example 243, 1-(Thiadiazol-4-ylmethyl)-6-[3-(trifluoromethyl)phenyl]-3H-imidazo[4,5-b]pyridin-2-one]
22 | 1.89 µM | O=c1ccc(Cn2c(=O)[nH]c3ncc(-c4cccc(C(F)(F)F)c4)cc32)c[nH]1 [Example 244, 1-[(6-Oxo-1H-pyridin-3-yl)methyl]-6-[3-(trifluoromethyl)phenyl]-3H-imidazo[4,5-b]pyridin-2-one]
23 | 0.349 µM | Cn1c(=O)n(Cc2ccncn2)c2cc(-c3cccc(C(F)(F)F)c3)cnc21 [Example 246, 3-Methyl-1-(pyrimidin-4-ylmethyl)-6-[3-(trifluoromethyl)phenyl]imidazo[4,5-b]pyridin-2-one]
24 | 0.133 µM | Cn1c(=O)n(Cc2cncnc2)c2cc(-c3cccc(C(F)(F)F)c3)cnc21 [Example 247, 3-Methyl-1-(pyrimidin-5-ylmethyl)-6-[3-(trifluoromethyl)phenyl]imidazo[4,5-b]pyridin-2-one]
25 | 2.05 µM | Cc1nccc(Cn2c(=O)n(C)c3ncc(-c4cccc(C(F)(F)F)c4)cc32)n1 [Example 248, 3-Methyl-1-[(2-methylpyrimidin-4-yl)methyl]-6-[3-(trifluoromethyl)phenyl]imidazo[4,5-b]pyridin-2-one]
26 | 0.253 µM | Cn1c(=O)n(Cc2cnccn2)c2cc(-c3cccc(C(F)(F)F)c3)cnc21 [Example 249, 3-Methyl-1-(pyrazin-2-ylmethyl)-6-[3-(trifluoromethyl)phenyl]imidazo[4,5-b]pyridin-2-one]
27 | 2 µM | Cn1c(=O)n(Cc2ccncc2)c2cc(-c3cccc(C(F)(F)F)c3)cnc21 [Example 250, 3-Methyl-1-(4-pyridylmethyl)-6-[3-(trifluoromethyl)phenyl]imidazo[4,5-b]pyridin-2-one]
28 | 0.8 µM | Cn1c(=O)n(Cc2ccccn2)c2cc(-c3cccc(C(F)(F)F)c3)cnc21 [Example 251, 3-Methyl-1-(2-pyridylmethyl)-6-[3-(trifluoromethyl)phenyl]imidazo[4,5-b]pyridin-2-one]
29 | > 10 µM | COc1ccc(Cn2c(=O)[nH]c3ncc(-c4cccc(C(F)(F)F)c4)cc32)nn1 [Example 252, 1-[(6-Methoxypyridazin-3-yl)methyl]-6-[3-(trifluoromethyl)phenyl]-3H-imidazo[4,5-b]pyridin-2-one]
30 | 0.066 µM | O=c1[nH]c2ncc(-c3cccc(C(F)(F)F)c3)cc2n1Cc1cnccn1 [Example 253, 1-(Pyrazin-2-ylmethyl)-6-[3-(trifluoromethyl)phenyl]-3H-imidazo[4,5-b]pyridin-2-one]
31 | 0.824 µM | Cc1nccc(Cn2c(=O)[nH]c3ncc(-c4cccc(C(F)(F)F)c4)cc32)n1 [Example 254, 1-[(2-Methylpyrimidin-4-yl)methyl]-6-[3-(trifluoromethyl)phenyl]-3H-imidazo[4,5-b]pyridin-2-one]
32 | 0.043 µM | O=c1[nH]c2ncc(-c3cccc(C(F)(F)F)c3)cc2n1Cc1cncnc1 [Example 255, 1-(Pyrimidin-5-ylmethyl)-6-[3-(trifluoromethyl)phenyl]-3H-imidazo[4,5-b]pyridin-2-one]
33 | 0.134 µM | O=c1[nH]c2ncc(-c3cccc(C(F)(F)F)c3)cc2n1Cc1ncc(F)cn1 [Example 256, 1-[(5-Fluoropyrimidin-2-yl)methyl]-6-[3-(trifluoromethyl)phenyl]-3H-imidazo[4,5-b]pyridin-2-one]
34 | 1.46 µM | O=c1[nH]c2ncc(-c3cccc(C(F)(F)F)c3)cc2n1Cc1ccc(C(F)(F)F)nc1 [Example 257, 6-[3-(Trifluoromethyl)phenyl]-1-[[6-(trifluoromethyl)-3-pyridyl]methyl]-3H-imidazo[4,5-b]pyridin-2-one]
35 | 0.077 µM | O=c1[nH]c2ncc(-c3cccc(C(F)(F)F)c3)cc2n1Cc1cncc(F)c1 [Example 258, 1-[(5-Fluoro-3-pyridyl)methyl]-6-[3-(trifluoromethyl)phenyl]-3H-imidazo[4,5-b]pyridin-2-one]
36 | 1.03 µM | O=c1[nH]c2ncc(-c3cccc(C(F)(F)F)c3)cc2n1Cc1cncc(C(F)(F)F)c1 [Example 259, 6-[3-(Trifluoromethyl)phenyl]-1-[[5-(trifluoromethyl)-3-pyridyl]methyl]-3H-imidazo[4,5-b]pyridin-2-one]

Row | SMILES | IC50
37 | Cc1ccc(Cn2c(=O)[nH]c3ncc(-c4cccc(C(F)(F)F)c4)cc32)cn1 [Example 235, 1-[(6-Methyl-3-pyridyl)methyl]-6-[3-(trifluoromethyl)phenyl]-3H-imidazo[4,5-b]pyridin-2-one] | 0.256 µM
38 | O=c1[nH]c2ncc(-c3cccc(C(F)(F)F)c3)cc2n1Cc1ccc(F)nc1 [Example 238, 1-[(6-Fluoro-3-pyridyl)methyl]-6-[3-(trifluoromethyl)phenyl]-3H-imidazo[4,5-1D]pyridin-2-one] | 0.088 µM
